For orientation: EC50 means the concentration giving half of the maximal effect.

The test system of this assay is platelet activation (mouse thrombin). As to the kind of experiment: Inhibition of platelet activation in CD-1 mouse plasma. It counts as cell-based. As to conditions: CD-1 mouse platelet-rich plasma, Chrono-Lume luminescence, read-out: EC50 towards inhibited platelet activation. As to the method: Assays for inhibition of platelet activation in mouse plasma were performed by the following procedure. Test compounds and positive controls were first diluted in a three-fold series in DMSO to generate a range of concentrations for each from 1500 to 0.08 μM. 2 μL of each sample solution was then placed in corresponding wells of a 96-well plate (the “assay plate”) containing 88 μL of a platelet-rich plasma (PRP) mix described below. 10 μL of a 10 nM solution of mouse thrombin in assay buffer (described below) was then added to each well of the assay plate. The plate was then shaken on a Lab-Line Instruments Inc. titer plate shaker for 2 minutes at 300 RPM. 10 uL of Chrono-Lume® solution was then added to each well. The plate was again shaken for 3 minutes at 300 RPM. Luminescence data were recorded from a plate reader. Each sample was measured in duplicate and against blanks with and without mouse thrombin to record background and maximum signal measurements. The IC50 data were automatically calculated from the measured luminescence counts by means appreciated by one of skill in the art.
The various solutions involved in this procedure are described as follows. Assay buffer was made by combining 7.5 mL of 5 M NaCl with 1.19 g of HEPES powder, 0.5 mL of 1 M MgCl2, 1.5 mL of 1 M KCl and 235 mL of water in a 500 mL flask. The solution's pH was adjusted to 7.4 using 10 N NaOH, and then brought up to a final volume of 250 mL using water. A 20 mM solution of H-Gly-Pro-Arg-Pro-OH (GPRP) in this assay buffer was made from commercially obtained powder. The PRP Mix was made by first centrifuging down 600 μL of whole CD-1 mouse blood in 1.8 mL sodium citrate vacutainers at 100×g for 10 minutes at room temperature in an Eppendorf 5810 R centrifuge. The plasma layer was then extracted along with as much as possible of the buffy coat into storage vials. Extractions from multiple animals were often pooled together. To make the final mix, 2.3 mL of these plasma extractions was combined with 7.2 mL of the above assay buffer and 0.5 mL of the 20 mM GPRP solution. […]
With `CC(C)(C)C(=O)n1nc(-c2cccn(CCC(=O)O)c2=O)cc1NCc1ccc(Cl)s1` [Compound 1, 3-[3-(5-{[(5-chlorothiophen-2-yl)methyl]amino}-1-(2,2-dimethylpropanoyl)-1H-pyrazol-3-yl)-2-oxo-1,2-dihydropyridin-1-yl]propanoic acid], the concentration giving a half-maximal response (EC50) was found to be 15 µM. For `CC(C)(C)C(=O)n1nc(-c2cccn(CC(=O)O)c2=O)cc1NCc1ccc(Cl)s1` [Compound 4, 2-[3-(5-{[(5-chlorothiophen-2-yl)methyl]amino}-1-(2,2-dimethylpropanoyl)-1H-pyrazol-3-yl)-2-oxo-1,2-dihydropyridin-1-yl]acetic acid] the value was 15 µM; for `CC(C)(N)Cn1cccc(-c2cc(NCc3ccc(Cl)s3)n(C(=O)c3ccoc3)n2)c1=O` [Compound 9, 1-(2-amino-2-methylpropyl)-3-(5-{[(5-chlorothiophen-2-yl)methyl]amino}-1-(furan-3-carbonyl)-1H-pyrazol-3-yl)-1,2-dihydropyridin-2-one], 0.032 µM.

Source of the values: patent US11865110B2, “Thrombin inhibitors, formulations, and uses thereof” (VERSEON INTERNATIONAL CORPORATION, priority 2018, dated 2024).
